27 compounds from US20240216357A1 (SICHUAN HUIYU PHARMACEUTICAL CO., LTD., priority 2021, published 2024) can be followed below.

Structures can show the parent of a compound that is named as a salt. Where two headings read alike, the source gives them in different places.

The target of one data set is LSD1 (Homo sapiens (Human), UniProt O60341). Nature of the data set: LSD1 enzyme activity detection (HTRF). The following applies: read-out: Inhibition of enzymatic activity of LSD1 IC50. Type of data set: biochemical. In general terms: TR-FRET usually uses a lanthanide donor and a delayed reading to cut background.
The test system of a further data set is NCI-H1417 cells. Put plainly: In vitro cell proliferation detection (CellTiter-Glo, 7 days). The data set is classed as cell-based. The note with it: Homo sapiens, 168 h; NCI-H1417 cells, 7 days, CellTiter-Glo; read-out: NCI-H1417 proliferation inhibition IC50.
Data set [1] concerns the target voltage-gated potassium ion channel hERG (Homo sapiens (Human), UniProt Q12809). Put plainly: hERG inhibition test (manual patch-clamp). The following applies: read-out: hERG IC50; manual patch-clamp. In general terms: Block of hERG is tested as a sign of cardiac risk.

Sequence of voltage-gated potassium ion channel hERG (Q12809 whole entry): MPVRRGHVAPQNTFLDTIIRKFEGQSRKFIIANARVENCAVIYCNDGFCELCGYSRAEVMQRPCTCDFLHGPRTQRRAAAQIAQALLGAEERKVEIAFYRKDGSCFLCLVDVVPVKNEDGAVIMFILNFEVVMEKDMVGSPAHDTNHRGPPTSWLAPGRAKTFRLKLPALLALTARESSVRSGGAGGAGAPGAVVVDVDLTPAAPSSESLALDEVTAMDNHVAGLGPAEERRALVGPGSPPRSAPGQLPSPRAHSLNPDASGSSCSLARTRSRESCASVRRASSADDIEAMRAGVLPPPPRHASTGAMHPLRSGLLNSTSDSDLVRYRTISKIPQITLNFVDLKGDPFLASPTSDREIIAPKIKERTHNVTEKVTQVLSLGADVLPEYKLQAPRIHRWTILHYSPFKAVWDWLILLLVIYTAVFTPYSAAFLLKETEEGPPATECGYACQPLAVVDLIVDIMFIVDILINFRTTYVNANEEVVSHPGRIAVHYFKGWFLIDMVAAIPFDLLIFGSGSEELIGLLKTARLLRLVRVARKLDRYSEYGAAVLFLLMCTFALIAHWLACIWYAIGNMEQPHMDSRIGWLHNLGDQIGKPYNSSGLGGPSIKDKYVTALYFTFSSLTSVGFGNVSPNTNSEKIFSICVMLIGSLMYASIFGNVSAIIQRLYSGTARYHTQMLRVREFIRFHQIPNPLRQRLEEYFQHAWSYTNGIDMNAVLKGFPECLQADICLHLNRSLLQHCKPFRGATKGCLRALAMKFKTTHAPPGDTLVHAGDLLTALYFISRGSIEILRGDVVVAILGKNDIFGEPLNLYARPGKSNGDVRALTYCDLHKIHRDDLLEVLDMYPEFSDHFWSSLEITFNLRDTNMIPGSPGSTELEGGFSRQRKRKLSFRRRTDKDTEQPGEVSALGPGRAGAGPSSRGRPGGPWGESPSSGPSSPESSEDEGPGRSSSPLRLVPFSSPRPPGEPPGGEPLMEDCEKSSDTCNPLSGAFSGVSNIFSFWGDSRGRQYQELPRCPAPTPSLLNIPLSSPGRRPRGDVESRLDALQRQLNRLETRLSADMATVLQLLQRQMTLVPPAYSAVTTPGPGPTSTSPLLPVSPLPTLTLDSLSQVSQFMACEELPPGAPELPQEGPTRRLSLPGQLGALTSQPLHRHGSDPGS

With `COc1ccc(-c2c(-c3ccc(C#N)c(F)c3)nc(N3CCC(N)CC3)n3ccnc23)cn1` [Example 121, 4-(5-(4-aminopiperidin-1-yl)-8-(6-methoxypyridin-3-yl)imidazolo [1,2-c]pyrimidin-7-yl)-2-fluorobenzonitrile], the IC50 stood at 3.15 ± 1.03 nM at LSD1 (HTRF, H3K4me1 substrate); 8.38 nM in the data set with NCI-H1417 cells; 6.04 µM in data set [1].
Regarding `O=C(NC1CCOCC1)c1cc(CN[C@@H]2C[C@H]2c2ccc(F)cc2)nc(-c2ccc(-n3cccn3)cc2)n1` [Example 233], the IC50 on LSD1 (HTRF, H3K4me1 substrate) was 7.2 ± 2.3 nM; in the data set with NCI-H1417 cells it was 9.36 nM; in data set [1], 4.47 µM.
Take `N#Cc1ccc(-c2nc(N3CCC(N)CC3)n3ccnc3c2-c2ccc3[nH]nc(Cl)c3c2)cc1F` [Example 123, 4-(5-(4-aminopiperidin-1-yl)-8-(3-chloro-1H-indazolo-5-yl)imidazolo[1,2-c]pyrimidin-7-yl)-2-fluorobenzonitrile]: the IC50 at LSD1 (HTRF, H3K4me1 substrate) amounted to 28.7 nM; in the data set with NCI-H1417 cells, 47.6 nM.
For `Cc1ccc(-c2c(-c3ccc(C#N)cc3)cc3c(N4CCC(N)CC4)nncn23)cc1` [Example 196, 4-(1-(4-aminopiperidin-1-yl)-6-(p-tolyl)pyrrolo[1,2-d][1,2,4]triazin-7-yl)benzonitrile hydrochloride], the IC50 came out at 37.7 nM at LSD1 and 656 nM with NCI-H1417 cells.
On to `COc1ccc(-c2c(O)cc(N3C4CCC3CC(N)C4)nc2-c2ccc(C#N)c(F)c2)cc1O` (centres unmarked) [Example 37, 4-(6-(3-amino-8-azabicyclo[3.2.1]octane-8-yl)-4-hydroxy-3-(3-hydroxy-4-methoxyphenyl)pyridin-2-yl)-2-fluorobenzonitrile], for which the IC50 at LSD1 (HTRF, H3K4me1 substrate) was 15.1 nM; in the data set with NCI-H1417 cells it was 173 nM.
`Cn1ccc(-c2cnc(N3CCC(N)CC3)c(C#N)c2-c2ccc(C#N)c(F)c2)cc1=O` [Example 83, 6-(4-aminopiperidin-1-yl)-4-(4-cyano-3-fluorophenyl)-1′-methyl-2′-oxo-1′,2′-dihydro-[3,4′-bipyridine]-5-carbonitrile hydrochloride]: the IC50 on LSD1 (HTRF, H3K4me1 substrate) worked out at 35.4 nM; in the data set on NCI-H1417 cells it was 630 nM.
`COc1cc(-c2c(OC)cc(N3CCC(N)CC3)nc2-c2ccc(C#N)c(F)c2)ccc1O` [Example 97, 4-(6-(4-aminopiperidin-1-yl)-3-(4-hydroxy-4-methoxyphenyl)-4-methoxypyridin-2-yl)-2-fluorobenzonitrile]: the IC50 turned out to be 88.5 nM on LSD1 (HTRF, H3K4me1 substrate) and 185 nM in the data set on NCI-H1417 cells.
With `CC1(N)CCN(c2nc(-c3ccc(C#N)c(F)c3)c(-c3ccc(OC(F)(F)F)c(O)c3)c3nccn23)CC1` [Example 152, 4-(5-(4-amino-4-methylpiperidin-1-yl)-8-(3-hydroxy-4-(trifluoromethoxy)phenyl)imidazolo [1,2-c]pyrimidin-7-yl)-2-fluorobenzonitrile], the IC50 is 23.5 nM at LSD1 (HTRF, H3K4me1 substrate) and 12.4 nM in the data set on NCI-H1417 cells.
For `CNC1CCCN(c2ccnn3c(-c4ccc(C)cc4)c(-c4ccc(C#N)cc4)cc23)C1` (centres unmarked) [Example 197, 4-(4-(3-(methylamino)piperidin-1-yl)-7-(p-tolyl)pyrrolo[1,2-b]pyridazin-6-yl]benzonitrile hydrochloride], the IC50 turned out to be 9.44 ± 5.96 nM at LSD1 and 24.2 nM in the data set on NCI-H1417 cells.
For `COc1ccc(-c2c(-c3ccc(C#N)c(F)c3)nc(N3CCC(N)CC3)c3ncoc23)cc1O` [Example 278, 4-(4-(4-aminopiperidin-1-yl)-7-(3-hydroxy-4-methoxyphenyl)oxazolo[4,5-c]pyridin-6-yl)-2-fluo robenzonitrile], the IC50 at LSD1 (HTRF, H3K4me1 substrate) amounted to 0.3 ± 0.1 nM; in the data set with NCI-H1417 cells, 0.648 nM.
Consider `COc1cc(N2CCC(N)CC2)nc(-c2ccc(C#N)c(F)c2)c1-c1ccc(Cl)c(O)c1` [Example 98, 4-(6-(4-aminopiperidin-1-yl)-3-(4-chloro-3-hydroxyphenyl)-4-methoxypyridin-2-yl)-2-fluorobenzonitrile hydrochloride], for which the IC50 with NCI-H1417 cells was 0.604 nM; in data set [1], 5.85 µM.
For the compound `Cc1ccc(-c2cnc(N3CCC(N)CC3)c(C#N)c2-c2ccc(C#N)c(F)c2)cc1F` [Example 72, 2-(4-aminopiperidin-1-yl)-4-(4-cyano-3-fluorophenyl)-5-(3-fluoro-4-methylphenyl) nicotinitrile], the IC50 at LSD1 (HTRF, H3K4me1 substrate) was 6.6 ± 1 nM; in the data set on NCI-H1417 cells, 12.2 nM.
The like results for `CC(C)(O)Cn1ncc2cc(F)c(-c3c(-c4ccc(C#N)c(F)c4)nc(N4CCC(N)CC4)n4ccnc34)cc21` [Example 127, 4-(5-(4-aminopiperidin-1-yl)-8-(5-fluoro-1-(2-hydroxy-2-methylpropyl)-1H-indazo-6-yl)imidazolo[1,2-c]pyrimidin-7-yl)-2-fluorobenzonitrile hydrochloride] were, in that order, 34.4 nM and 135 nM.
For the compound `COc1ccc(-c2c(O)cc(N3CC[C@@H](N)[C@H](OC)C3)nc2-c2ccc(C#N)c(F)c2)cc1F` [Example 51, 4-(6-((3R,4R)-4-amino-3-methoxypiperidin-1-yl)-3-(3-fluoro-4-methoxyphenyl)-4-hydroxypyridin-2-yl)-2-fluorobenzonitrile], the IC50 on LSD1 (HTRF, H3K4me1 substrate) amounted to 64 ± 20 nM; in the data set with NCI-H1417 cells, 88.2 nM.
On to `N#Cc1ccc(-c2nc(N3CCC(N)CC3)n3ccnc3c2-c2ccc(OC(F)(F)F)c(F)c2)cc1F` [Example 130, 4-(5-(4-aminopiperidin-1-yl)-8-(3-fluoro-4-(trifluoromethoxy)phenyl)imidazolo [1,2-c]pyrimidin-7-yl)-2-fluorobenzonitrile], for which the IC50 on LSD1 (HTRF, H3K4me1 substrate) turned out to be 10.7 nM; in the data set with NCI-H1417 cells, 17.6 nM.
The like results for `COc1ccc(-c2cnc(N3CCC[C@@H](N)C3)c(C#N)c2-c2ccc(C#N)c(F)c2)cc1O` [Example 78, (R)-2-(3-aminopiperidin-1-yl)-4-(4-cyano-3-f1uorophenyl)-5-(3-hydroxy-4-methoxyphenyl) nicotinonitrile] were, in that order, 1.6 ± 0.3 nM and 2.53 nM.
On to `COc1ccc(-c2c(OC)cc(N3CCNCC3)nc2-c2ccc(C#N)c(F)c2)cc1O` [Example 96, 2-fluoro-4-(3-(3-hydroxy-4-methoxyphenyl)-4-methoxy-6-(piperazinyl)pyridin-2-yl)benzonitrile hydrochloride], for which the IC50 at LSD1 (HTRF, H3K4me1 substrate) stood at 3 ± 0.6 nM; in the data set with NCI-H1417 cells, 11.8 nM.
As for `COc1ccc(-c2c(O)cc(N3CCC[C@@H](N)C3)nc2-c2ccc(C#N)c(F)c2)cc1F` [Example 31, (R)-4-(6-(3-aminopiperidin-1-yl)-3-(3-fluoro-4-methoxyphenyl)-4-hydroxypyridin-2-yl)-2-fluorobenzonitrile hydrochloride], the IC50 at LSD1 (HTRF, H3K4me1 substrate) came out at 51 nM; with NCI-H1417 cells, 77.2 nM.
On to `Cn1ccc2cc(F)c(-c3c(-c4ccc(C#N)c(F)c4)nc(N4C5CCC4CC(N)C5)n4ccnc34)cc21` (centres unmarked) [Example 174, 4-(5-(3-amino-8-azabicyclo[3.2.1]octane-8-yl)-8-(5-fluoro-1-methyl-1H-indole-6-yl)imidazolo [1,2-c]pyrimidin-7-yl)-2-fluoro benzonitrile], for which the IC50 at LSD1 (HTRF, H3K4me1 substrate) was 13.2 nM; with NCI-H1417 cells it was 14.4 nM.
As for `Cc1noc2cc(-c3c(C#N)cc(N4CCC(N)CC4)nc3-c3ccc(C#N)c(F)c3)c(F)cc12` [Example 275, 6-(4-aminopiperidin-1-yl)-2-(4-cyano-3-fluorophenyl)-3-(5-fluoro-3-methylbenzo[d]isoxazol-6-yl)isonionitrile], the IC50 on LSD1 (HTRF, H3K4me1 substrate) worked out at 0.94 nM; in the data set with NCI-H1417 cells, 3.6 nM.
As to `COc1ccc(-c2c(-c3ccc(C#N)c(F)c3)nc(N3CCC[C@@H](N)C3)n3ccnc23)cc1O` [Example 139, (R)-4-(5-(3-aminopiperidin-1-yl)-8-(3-hydroxy-4-methoxyphenyl)imidazolo[1,2-c]pyrimidin-7-yl)-2-fluorobenzonitrile hydrochloride], the IC50 was 0.69 ± 0.18 nM at LSD1 (HTRF, H3K4me1 substrate) and 2.83 nM with NCI-H1417 cells.
For `COc1ccc(-c2c(C(N)=O)nc(N3CCC(N)CC3)nc2-c2ccc(C#N)c(F)c2)cc1F` [Example 110, 2-(4-aminopiperidin-1-yl)-6-(4-cyano-3-fluorophenyl)-5-(3-fluoro-4-methoxyphenyl)pyrimidine-4-carboxamide hydrochloride], the IC50 was determined as 3.2 ± 0.37 nM at LSD1 (HTRF, H3K4me1 substrate) and 42.6 nM in the data set on NCI-H1417 cells.
For `Cc1noc2cc(-c3oc(C(=O)N4C5CCC4CC(N)C5)nc3-c3ccc(C#N)c(F)c3)c(F)cc12` (centres unmarked) [Example 222, 4-(2-(3-amino-8-azabicyclo[3.2.1]octane-8-carbonyl)-5-(5-fluoro-3-methylbenzo[d]isoxazol-6-yl)oxazol-4-yl)-2-fluorobenzonitrile hydrochloride], the IC50 on LSD1 (HTRF, H3K4me1 substrate) was 14.4 nM; with NCI-H1417 cells, 41 nM.
Regarding `CN[C@@H]1CCCN(c2nccn3c(-c4ccc(C)cc4)c(-c4ccc(C#N)cc4)cc23)C1` [Example 189, (R)-4-(1-(3-(methylamino)piperidin-1-yl)-6-(p-tolyl)pyrrolo[1,2-a]pyrazin-7-yl)benzonitrile hydrochloride], the IC50 was 0.29 ± 0.11 nM on LSD1 (HTRF, H3K4me1 substrate) and 4.04 nM in the data set on NCI-H1417 cells.
The like results for `O=C(NC1CCOCC1)c1cc(CN[C@@H]2C[C@H]2c2ccc(F)cc2)nc(-c2ccc(-n3ccnn3)cc2)n1` [Example 249] were, in that order, 15.8 nM and 1.11 nM.
The like results for `CC(C)(O)C#Cc1ccc(-c2c(-c3ccc(C#N)c(F)c3)nc(N3CCC(N)CC3)n3ccnc23)cc1F` [Example 126, 4-(5-(4-aminopiperidin-1-yl)-8-(3-fluoro-4-(3-hydroxy-3-methyl-1-alkynyl-1-yl)phenyl)imidazolo[1,2-c]pyrimidin-7-yl)-2-fluorobenzonitrile hydrochloride] were, in that order, 15.9 nM and 21.3 nM.
The corresponding values for `N#Cc1ccc(-c2cc(C(=O)N3C4CCC3CC(N)C4)sc2-c2ccccn2)cc1F` (centres unmarked) [Example 201, 4-(5-(3-amino-8-azabicyclo [3.2.1]octane-8-carbonyl)-2-(pyridin-2-yl)thiophen-3-yl)-2-fluorobenzonitrile Hydrochloride] are 26.8 nM and 384 nM.
